Assay results as given in PubChem BioAssay AID1918933 (Molecular Pharmacology Branch, DTP, NCI, 2023).
“And” between values parts separate entries of the source, which are not always exact repeats. Equal entries are not always repeated.

System: 186277-243-T-J2-PDC complex spheroid viability
Test: Anticancer human tumor 186277-243-T-J2-PDC patient-derived colon adenocarcinoma cell line growth inhibition
Conditions: for viability, T/C: stronger effect = lower value
In short: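 Drug combinations with the LSD1 inhibitor iadademstat tested on tumor cells co-cultured as spheroids with endothelial cells and mesenchymal stem cells. Concentrations descended in half-log increments from clinical Cmax or 10 microM.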

[1] = curve of first compound, second compound 0.1 µM
[2] = curve of first compound, second compound 0.316 µM
[3] = curve of first compound, second compound 1 µM
[4] = curve of first compound, second compound 3.16 µM
[5] = curve of first compound, second compound 10 µM
[6] = second compound 0.1 µM, first compound 0.0316 µM
[7] = second compound 0.1 µM, first compound 0.1 µM
[8] = second compound 0.1 µM, first compound 0.316 µM
[9] = second compound 0.1 µM, first compound 1 µM
[10] = second compound 0.1 µM, first compound 3.16 µM
[11] = second compound 0.1 µM, first compound 10 µM
[12] = second compound 0.316 µM, first compound 0.0316 µM
[13] = second compound 0.316 µM, first compound 0.1 µM
[14] = second compound 0.316 µM, first compound 0.316 µM
[15] = second compound 0.316 µM, first compound 1 µM
[16] = second compound 0.316 µM, first compound 3.16 µM
[17] = second compound 0.316 µM, first compound 10 µM
[18] = second compound 1 µM, first compound 0.0316 µM
[19] = second compound 1 µM, first compound 0.1 µM
[20] = second compound 1 µM, first compound 0.316 µM
[21] = second compound 1 µM, first compound 1 µM
[22] = second compound 1 µM, first compound 3.16 µM
[23] = second compound 1 µM, first compound 10 µM
[24] = second compound 3.16 µM, first compound 0.0316 µM
[25] = second compound 3.16 µM, first compound 0.1 µM
[26] = second compound 3.16 µM, first compound 0.316 µM
[27] = second compound 3.16 µM, first compound 1 µM
[28] = second compound 3.16 µM, first compound 3.16 µM
[29] = second compound 3.16 µM, first compound 10 µM
[30] = second compound 10 µM, first compound 0.0316 µM
[31] = second compound 10 µM, first compound 0.1 µM
[32] = second compound 10 µM, first compound 0.316 µM
[33] = second compound 10 µM, first compound 1 µM
[34] = second compound 10 µM, first compound 3.16 µM
[35] = second compound 10 µM, first compound 10 µM
[36] = second compound 0.1 µM, first compound 0.00316 µM
[37] = second compound 0.1 µM, first compound 0.01 µM
[38] = second compound 0.316 µM, first compound 0.00316 µM
[39] = second compound 0.316 µM, first compound 0.01 µM
[40] = second compound 1 µM, first compound 0.00316 µM
[41] = second compound 1 µM, first compound 0.01 µM
[42] = second compound 3.16 µM, first compound 0.00316 µM
[43] = second compound 3.16 µM, first compound 0.01 µM
[44] = second compound 10 µM, first compound 0.00316 µM
[45] = second compound 10 µM, first compound 0.01 µM
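Also: 7 day exposure to compounds.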
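For viability, T/C in this document: 100% = DMSO vehicle control viability.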

Structure (SMILES)	IC50 [1]	IC50 [2]	IC50 [3]	IC50 [4]	IC50 [5]	viability, T/C [6]	viability, T/C [7]	viability, T/C [8]	viability, T/C [9]	viability, T/C [12]	viability, T/C [13]	viability, T/C [14]	viability, T/C [15]	viability, T/C [18]	viability, T/C [19]	viability, T/C [20]	viability, T/C [24]	viability, T/C [25]	viability, T/C [30]	viability, T/C [31]	also measured
O=C(c1cc(Cc2n[nH]c(=O)c3ccccc23)ccc1F)N1CCN(C(=O)C2CC2)CC1 + NC1CC1c1ccc(-c2cccc(O)c2)cc1	> 10 µM	> 10 µM	> 10 µM	> 10 µM	> 10 µM	98.8%	89.7%	95.4%	103%	101%	101%	110%	92.6%	106%	92.7%	97.4%	84.6%	101%	87.9%	92%	viability, T/C [10]: 122%; viability, T/C [11]: 107%; viability, T/C [16]: 121%; viability, T/C [17]: 98.5%; viability, T/C [21]: 95.1%; viability, T/C [22]: 120%; viability, T/C [23]: 106%; viability, T/C [26]: 95.8%; viability, T/C [27]: 103%; viability, T/C [28]: 115%; viability, T/C [29]: 108%; viability, T/C [32]: 93.8%; viability, T/C [33]: 85.4%; viability, T/C [34]: 120%; viability, T/C [35]: 98.5%
CC1(C)CCC(CN2CCN(c3ccc(C(=O)NS(=O)(=O)c4ccc(NCC5CCOCC5)c([N+](=O)[O-])c4)c(Oc4cnc5[nH]ccc5c4)c3)CC2)=C(c2ccc(Cl)cc2)C1 + NC1CC1c1ccc(-c2cccc(O)c2)cc1	2.23 µM	2.26 µM	2.24 µM	2.41 µM	2.15 µM	106%	101%	117%	99.1%	98.2%	97.4%	108%	98.8%	102%	106%	98.5%	106%	101%	107%	107%	viability, T/C [10]: 28.4%; viability, T/C [11]: 0.17%; viability, T/C [16]: 29.9%; viability, T/C [17]: 0.15%; viability, T/C [21]: 91.3%; viability, T/C [22]: 32.6%; viability, T/C [23]: 0.14%; viability, T/C [26]: 107%; viability, T/C [27]: 94.4%; viability, T/C [28]: 36.4%; viability, T/C [29]: 0.15%; viability, T/C [32]: 101%; viability, T/C [33]: 99.7%; viability, T/C [34]: 25%; viability, T/C [35]: 0.2%
Cn1ncnc1C1c2n[nH]c(=O)c3cc(F)cc(c23)NC1c1ccc(F)cc1 (centres undefined)																					viability, T/C (compound 0.000316 µM): 101% and 106%; viability, T/C (compound 0.001 µM): 98.5% and 98%; viability, T/C (compound 0.00316 µM): 97.8% and 95.2%; viability, T/C (compound 0.01 µM): 97.5% and 93.7%; viability, T/C (compound 0.0316 µM): 94.1% and 101%; viability, T/C (compound 0.1 µM): 97.3% and 108%; IC50 (curve of compound): > 0.1 µM
COc1ccc([C@@H](O)c2cc(-c3ncnc4cc(N5CCOCC5)ccc34)c(F)cc2Cl)nn1 + NC1CCC(NC2CC2c2ccccc2)CC1	4.32 µM	4.43 µM	4.48 µM	4.3 µM	3.86 µM	112%	119%	112%	93.2%	128%	143%	105%	100%	116%	118%	108%	122%	126%	109%	118%	viability, T/C [10]: 67.3%; viability, T/C [11]: 7%; viability, T/C [16]: 72.7%; viability, T/C [17]: 5.45%; viability, T/C [21]: 109%; viability, T/C [22]: 68.7%; viability, T/C [23]: 6.38%; viability, T/C [26]: 122%; viability, T/C [27]: 97.9%; viability, T/C [28]: 67.5%; viability, T/C [29]: 5.71%; viability, T/C [32]: 104%; viability, T/C [33]: 101%; viability, T/C [34]: 59%; viability, T/C [35]: 5.79%
CC1COCCN1c1cc(-c2ccnn2C)c2ccnc(-c3ccn[nH]3)c2n1 (centres undefined) + NC1CC1c1ccc(-c2cccc(O)c2)cc1	< 0.00316 µM	< 0.00316 µM	< 0.00316 µM	< 0.00316 µM	< 0.00316 µM	9.71%	8.39%	9.56%	6.55%	10.2%	8.74%	8.51%	6.53%	10.2%	7.9%	8.7%	10.9%	8.9%	10.1%	8.33%	viability, T/C [36]: 20.3%; viability, T/C [37]: 15.9%; viability, T/C [38]: 19.9%; viability, T/C [39]: 16.7%; viability, T/C [40]: 20.7%; viability, T/C [41]: 15.4%; viability, T/C [21]: 5.94%; viability, T/C [42]: 22.6%; viability, T/C [43]: 17.3%; viability, T/C [26]: 9.05%; viability, T/C [27]: 6.86%; viability, T/C [44]: 18%; viability, T/C [45]: 15.5%; viability, T/C [32]: 8.45%; viability, T/C [33]: 7.35%
CC(C)CC(NC(=O)C(Cc1ccccc1)NC(=O)c1cnccn1)B(O)O (centres undefined) + NC1CCC(NC2CC2c2ccccc2)CC1	0.00372 µM	0.00394 µM	0.00367 µM	0.00454 µM	0.00395 µM	0.13%	0.28%			0.31%	0.65%			0.44%	0.16%		0.25%	0.11%	0.16%	0.43%	viability, T/C (second compound 0.1 µM, first compound 0.000316 µM): 103%; viability, T/C (second compound 0.1 µM, first compound 0.001 µM): 107%; viability, T/C [36]: 58.1%; viability, T/C [37]: 0.46%; viability, T/C (second compound 0.316 µM, first compound 0.000316 µM): 113%; viability, T/C (second compound 0.316 µM, first compound 0.001 µM): 107%; viability, T/C [38]: 61.5%; viability, T/C [39]: 0.8%; viability, T/C (second compound 1 µM, first compound 0.000316 µM): 111%; viability, T/C (second compound 1 µM, first compound 0.001 µM): 107%; viability, T/C [40]: 57.4%; viability, T/C [41]: 0.43%; viability, T/C (second compound 3.16 µM, first compound 0.000316 µM): 107%; viability, T/C (second compound 3.16 µM, first compound 0.001 µM): 124%; viability, T/C [42]: 72.7%; viability, T/C [43]: 0.98%; viability, T/C (second compound 10 µM, first compound 0.000316 µM): 111%; viability, T/C (second compound 10 µM, first compound 0.001 µM): 98.5%; viability, T/C [44]: 62%; viability, T/C [45]: 0.43%
Nc1ncn(C2CC(O)C(CO)S2)c(=O)n1 (centres undefined)																					viability, T/C (compound 0.000949 µM): 109% and 96.1%; viability, T/C (compound 0.003 µM): 118% and 104%; viability, T/C (compound 0.00949 µM): 99.9% and 109%; viability, T/C (compound 0.03 µM): 83.4% and 99.1%; viability, T/C (compound 0.0949 µM): 37.5% and 53.4%; viability, T/C (compound 0.3 µM): 11.7% and 12%; IC50 (curve of compound): 0.0696 µM and 0.104 µM
O=C(c1cc(Cc2n[nH]c(=O)c3ccccc23)ccc1F)N1CCN(C(=O)C2CC2)CC1 + NC1CCC(NC2CC2c2ccccc2)CC1	> 10 µM	> 10 µM	> 10 µM	> 10 µM	> 10 µM	121%	121%	117%	123%	119%	114%	117%	113%	111%	112%	122%	120%	120%	111%	109%	viability, T/C [10]: 121%; viability, T/C [11]: 94%; viability, T/C [16]: 127%; viability, T/C [17]: 84.1%; viability, T/C [21]: 123%; viability, T/C [22]: 121%; viability, T/C [23]: 79.1%; viability, T/C [26]: 119%; viability, T/C [27]: 132%; viability, T/C [28]: 124%; viability, T/C [29]: 80.5%; viability, T/C [32]: 114%; viability, T/C [33]: 134%; viability, T/C [34]: 109%; viability, T/C [35]: 69.9%
